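How tested: cells in 96-well plates exposed to compound for 48 hours at five concentrations. At the GI50, growth is halved. TGI: total growth inhibition.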
Key:
Assay in all cases: NCI-60 cell line screen, 48 h
MOLT-4 leukemia = system: MOLT-4 leukemia
OVCAR-4 ovarian = system: OVCAR-4 ovarian
SK-MEL-28 melanoma = system: SK-MEL-28 melanoma
M19-MEL melanoma = system: M19-MEL melanoma
SR leukemia = system: SR leukemia
LXFL 529 NSCLC = system: LXFL 529 NSCLC
DMS 114 small cell lung = system: DMS 114 small cell lung
OVCAR-3 ovarian = system: OVCAR-3 ovarian
HT29 colon = system: HT29 colon
SNB-78 CNS = system: SNB-78 CNS
SF-539 CNS = system: SF-539 CNS
DMS 273 small cell lung = system: DMS 273 small cell lung
EKVX NSCLC = system: EKVX NSCLC
HL-60(TB) leukemia = system: HL-60(TB) leukemia
COLO 205 colon = system: COLO 205 colon
NCI-H23 lung = system: NCI-H23 lung
HOP-62 NSCLC = system: HOP-62 NSCLC
UACC-257 melanoma = system: UACC-257 melanoma
KM20L2 colon = system: KM20L2 colon
SF-268 CNS = system: SF-268 CNS
HOP-18 NSCLC = system: HOP-18 NSCLC
NCI-H226 lung = system: NCI-H226 lung
786-0 renal = system: 786-0 renal
SNB-75 CNS = system: SNB-75 CNS
A498 renal = system: A498 renal
RXF 393 renal = system: RXF 393 renal
SW-620 colon = system: SW-620 colon
HOP-92 NSCLC = system: HOP-92 NSCLC
NCI-H460 lung = system: NCI-H460 lung
TK-10 renal = system: TK-10 renal
IGROV1 ovarian = system: IGROV1 ovarian
SN12C renal = system: SN12C renal
U251 CNS = system: U251 CNS
SK-MEL-5 melanoma = system: SK-MEL-5 melanoma
M14 melanoma = system: M14 melanoma
ACHN renal = system: ACHN renal
SK-MEL-2 melanoma = system: SK-MEL-2 melanoma
A549 NSCLC = system: A549 NSCLC
MALME-3M melanoma = system: MALME-3M melanoma
SF-295 CNS = system: SF-295 CNS
CCRF-CEM leukemia = system: CCRF-CEM leukemia
RPMI-8226 leukemia = system: RPMI-8226 leukemia
SNB-19 CNS = system: SNB-19 CNS
UACC-62 melanoma = system: UACC-62 melanoma
KM12 colon = system: KM12 colon
XF 498 CNS = system: XF 498 CNS
HCT-15 colon = system: HCT-15 colon
CAKI-1 renal = system: CAKI-1 renal
K-562 leukemia = system: K-562 leukemia
NCI-H522 lung = system: NCI-H522 lung
SK-OV-3 ovarian = system: SK-OV-3 ovarian
OVCAR-5 ovarian = system: OVCAR-5 ovarian
HCT-116 colon = system: HCT-116 colon
HCC-2998 colon = system: HCC-2998 colon
UO-31 renal = system: UO-31 renal
DLD-1 colon = system: DLD-1 colon
OVCAR-8 ovarian = system: OVCAR-8 ovarian
LOX IMVI melanoma = system: LOX IMVI melanoma
RXF-631 renal = system: RXF-631 renal

CN1COc2c(n(C)c(=O)[nH]c2=O)C1 was tested, and the TGI (MOLT-4 leukemia) was > 100 µM, the TGI (OVCAR-4 ovarian) was > 100 µM and the TGI (SK-MEL-28 melanoma) was > 100 µM. For the same compound, the TGI (M19-MEL melanoma) was > 100 µM, the TGI (SR leukemia) was > 80.6 µM and the TGI (LXFL 529 NSCLC) was > 100 µM. For the same compound, the TGI (DMS 114 small cell lung) was > 100 µM, the TGI (OVCAR-3 ovarian) was > 100 µM and the TGI (HT29 colon) was > 100 µM. For the same compound, the TGI (SNB-78 CNS) was > 100 µM, the TGI (SF-539 CNS) was > 100 µM and the TGI (DMS 273 small cell lung) was > 100 µM. For the same compound, the TGI (EKVX NSCLC) was > 100 µM, the TGI (HL-60(TB) leukemia) was > 80.3 µM and the TGI (COLO 205 colon) was > 100000 nM. The TGI (NCI-H23 lung) was > 100 µM, the TGI (HOP-62 NSCLC) was > 100 µM and the TGI (UACC-257 melanoma) was > 100 µM. For the same compound, the TGI (KM20L2 colon) was > 100 µM, the TGI (SF-268 CNS) was > 100 µM and the TGI (HOP-18 NSCLC) was > 100 µM. The TGI (NCI-H226 lung) was > 100 µM, the TGI (786-0 renal) was > 100 µM and the TGI (SNB-75 CNS) was > 100 µM. For the same compound, the TGI (A498 renal) was > 100 µM, the TGI (RXF 393 renal) was 97.9 µM and the TGI (SW-620 colon) was > 100000 nM. The TGI (HOP-92 NSCLC) was > 100 µM, the TGI (NCI-H460 lung) was > 100 µM and the TGI (TK-10 renal) was > 100 µM. For the same compound, the TGI (IGROV1 ovarian) was > 100 µM, the TGI (SN12C renal) was > 100 µM and the TGI (U251 CNS) was > 100 µM. The TGI (SK-MEL-5 melanoma) was > 100 µM, the TGI (M14 melanoma) was > 100000 nM and the TGI (ACHN renal) was > 100 µM. The TGI (SK-MEL-2 melanoma) was > 100 µM, the TGI (A549 NSCLC) was > 100 µM and the TGI (MALME-3M melanoma) was > 100 µM. The TGI (SF-295 CNS) was > 100 µM, the TGI (CCRF-CEM leukemia) was > 100 µM and the TGI (RPMI-8226 leukemia) was 90.8 µM. For the same compound, the TGI (SNB-19 CNS) was > 100 µM, the TGI (UACC-62 melanoma) was > 100 µM and the TGI (KM12 colon) was > 100 µM. The TGI (XF 498 CNS) was > 100 µM, the TGI (HCT-15 colon) was > 100 µM and the TGI (CAKI-1 renal) was > 68.3 µM. For the same compound, the TGI (K-562 leukemia) was > 100 µM, the TGI (NCI-H522 lung) was > 100 µM and the TGI (SK-OV-3 ovarian) was > 100 µM. For the same compound, the TGI (OVCAR-5 ovarian) was > 100 µM, the TGI (HCT-116 colon) was > 100 µM and the TGI (HCC-2998 colon) was > 100 µM. For the same compound, the TGI (UO-31 renal) was > 100 µM, the TGI (DLD-1 colon) was > 100 µM and the TGI (OVCAR-8 ovarian) was > 100 µM.
For CCCc1ccc(NCc2cc(OC)c(OC)c(OC)c2)cc1, the TGI (MOLT-4 leukemia) was 66.2 µM, the TGI (OVCAR-4 ovarian) was > 100 µM and the TGI (SK-MEL-28 melanoma) was 73.9 µM. It also gave a TGI (M19-MEL melanoma) of 44.6 µM, a TGI (LXFL 529 NSCLC) of 40.5 µM and a TGI (DMS 114 small cell lung) of 29.8 µM. The GI50 (OVCAR-3 ovarian) was 19 µM, the TGI (OVCAR-3 ovarian) was 54.4 µM and the TGI (HT29 colon) was 61.7 µM. For the same compound, the TGI (SNB-78 CNS) was > 100 µM, the TGI (SF-539 CNS) was 63.3 µM and the GI50 (DMS 273 small cell lung) was 16.2 µM. The TGI (DMS 273 small cell lung) was 31.8 µM, the TGI (EKVX NSCLC) was > 100 µM and the TGI (NCI-H23 lung) was 69.2 µM. The TGI (HOP-62 NSCLC) was > 100 µM, the TGI (UACC-257 melanoma) was 74.7 µM and the TGI (KM20L2 colon) was > 100 µM. The TGI (SF-268 CNS) was 79.2 µM, the TGI (HOP-18 NSCLC) was > 100 µM and the TGI (786-0 renal) was 50.3 µM. It also gave a TGI (SNB-75 CNS) of 94.8 µM, a TGI (A498 renal) of 98.6 µM and a TGI (RXF 393 renal) of 61.7 µM. For the same compound, the TGI (HOP-92 NSCLC) was 75.8 µM, the TGI (NCI-H460 lung) was > 100 µM and the TGI (LOX IMVI melanoma) was 30.7 µM. The TGI (TK-10 renal) was > 100 µM, the TGI (IGROV1 ovarian) was > 100 µM and the TGI (SN12C renal) was 53.2 µM. The TGI (U251 CNS) was 81.9 µM, the TGI (SK-MEL-5 melanoma) was 32.5 µM and the TGI (ACHN renal) was > 100 µM. For the same compound, the TGI (SK-MEL-2 melanoma) was 44.2 µM, the TGI (A549 NSCLC) was > 100 µM and the TGI (MALME-3M melanoma) was 50.4 µM. For the same compound, the TGI (CCRF-CEM leukemia) was 49 µM, the TGI (RPMI-8226 leukemia) was 37 µM and the TGI (SNB-19 CNS) was > 100 µM. The TGI (UACC-62 melanoma) was > 100 µM, the TGI (KM12 colon) was 55.2 µM and the TGI (XF 498 CNS) was 52.8 µM. The TGI (HCT-15 colon) was 32.1 µM, the TGI (K-562 leukemia) was 51.6 µM and the GI50 (NCI-H522 lung) was 17.3 µM. For the same compound, the TGI (NCI-H522 lung) was 34.3 µM, the TGI (SK-OV-3 ovarian) was 66.3 µM and the TGI (OVCAR-5 ovarian) was > 100 µM. The TGI (HCT-116 colon) was 48.3 µM, the TGI (UO-31 renal) was 56.6 µM and the TGI (DLD-1 colon) was 48.1 µM. For the same compound, the TGI (OVCAR-8 ovarian) was > 100 µM.
COc1ccc(C(Cl)=C(c2ccc(OCCN(C)C)cc2)c2ccc(OCCN(C)C)cc2)cc1 gave a TGI (MOLT-4 leukemia) of 6.04 µM, a TGI (OVCAR-4 ovarian) of 5.99 µM and a TGI (SK-MEL-28 melanoma) of 3.11 µM. For the same compound, the TGI (SR leukemia) was 3.16 µM, the TGI (DMS 114 small cell lung) was 3.06 µM and the TGI (OVCAR-3 ovarian) was 5.02 µM. It also gave a TGI (HT29 colon) of 3 µM, a TGI (SNB-78 CNS) of 3.94 µM and a TGI (SF-539 CNS) of 2.93 µM. It also gave a TGI (DMS 273 small cell lung) of 4.17 µM, a TGI (EKVX NSCLC) of 18.1 µM and a TGI (HL-60(TB) leukemia) of 3.65 µM. For the same compound, the TGI (COLO 205 colon) was 2940 nM, the TGI (NCI-H23 lung) was 3.98 µM and the TGI (HOP-62 NSCLC) was 10.4 µM. The TGI (KM20L2 colon) was 2.74 µM, the TGI (SF-268 CNS) was 4.71 µM and the TGI (NCI-H226 lung) was 3.42 µM. It also gave a TGI (786-0 renal) of 2.53 µM, a TGI (RXF-631 renal) of 966 nM and a TGI (SNB-75 CNS) of 3.29 µM. For the same compound, the TGI (RXF 393 renal) was 2.65 µM, the TGI (SW-620 colon) was 2750 nM and the TGI (HOP-92 NSCLC) was 6.1 µM. It also gave a TGI (NCI-H460 lung) of 3.32 µM, a TGI (TK-10 renal) of 31.1 µM and a TGI (IGROV1 ovarian) of 13.3 µM. It also gave a TGI (SN12C renal) of 11.7 µM, a TGI (U251 CNS) of 3.25 µM and a TGI (SK-MEL-5 melanoma) of 3.52 µM. It also gave a TGI (M14 melanoma) of 2920 nM, a TGI (ACHN renal) of 4.72 µM and a TGI (SK-MEL-2 melanoma) of 3.12 µM. It also gave a TGI (A549 NSCLC) of 3.67 µM, a TGI (MALME-3M melanoma) of 3.35 µM and a TGI (SF-295 CNS) of 3.24 µM. For the same compound, the TGI (CCRF-CEM leukemia) was 3.83 µM, the TGI (RPMI-8226 leukemia) was 3.83 µM and the TGI (SNB-19 CNS) was 7.43 µM. The TGI (UACC-62 melanoma) was 3.16 µM, the TGI (KM12 colon) was 2.83 µM and the TGI (XF 498 CNS) was 2.81 µM. For the same compound, the TGI (HCT-15 colon) was 3.58 µM, the TGI (CAKI-1 renal) was 16.3 µM and the TGI (K-562 leukemia) was 3.69 µM. It also gave a TGI (NCI-H522 lung) of 3.01 µM, a TGI (SK-OV-3 ovarian) of 7.69 µM and a TGI (OVCAR-5 ovarian) of 3.3 µM. It also gave a TGI (HCT-116 colon) of 2.68 µM, a TGI (HCC-2998 colon) of 7.35 µM and a TGI (UO-31 renal) of 3.31 µM. It also gave a TGI (DLD-1 colon) of 11.3 µM and a TGI (OVCAR-8 ovarian) of 4.06 µM.

From PubChem BioAssay (NCI)
